Source: paper PMC10011554, “BET inhibitor trotabresib in heavily pretreated patients with solid tumors and diffuse large B-cell lymphomas” (Nature Communications, 2023)

Experiment: Adverse events, DLTs, MTD and RP2D in phase I study CC-90010-ST-001 (NCI CTCAE v4.03)
Format: in vivo
Protocol: The primary endpoints of the study were the safety and tolerability of trotabresib, as well as the MTD and/or RP2D of trotabresib. Safety was assessed using the National Cancer Institute Common Terminology Criteria for Adverse Events v4.03[53].
The decision to evaluate additional subjects within a dose cohort, a higher dose cohort, intermediate dose cohorts, smaller dose increments, alternate dosing schedules, or declare an MTD will also be determined by the SRC, based on their review of clinical and laboratory safety […]
7.2.4. Definition of a Subject Evaluable for DLT
After the first dose is administered in any cohort during dose escalation, subjects in each cohort […]
more than one subject per day will be enrolled in a given dose escalation cohort.
A subject evaluable for DLT is defined as one that: […]
without experiencing a DLT,
Subjects non-evaluable for DLT will be replaced. Additional subjects within any dose cohort may be enrolled at the discretion of the SRC. Intra-subject dose escalation will not be allowed during the DLT assessment period.
7.2.5. Definition of Maximum Tolerated Dose (MTD) […]
of MTD is described in Section 7.2.2.
A variable dose cohort (eg, less frequent dosing) may be evaluated to accurately determine the MTD at the discretion of the SRC.
7.2.6. Definition of Dose-Limiting Toxicity (DLT) […]
used as a guide for the grading of severity of adverse events. A DLT is defined as any of the following toxicities occurring within the DLT assessment unless the event can clearly be […]
Do se-limiting toxicities are described below:
• Hyperglycemia meeting any of the following criteria:
− Grade 3 or greater fasting hyperglycemia (> 250 mg/dL) lasting > 4 days despite optimal medical treatment
(1 picture or pasted object on this page, not shown here)
− Hyperglycemia associated with diabetic ketoacidosis or nonketotic hyperosmolar coma regardless of glucose level
− Hyperglycemia that necessitates dose reduction despite dose interruption and resolution to ≤ grade 1 hyperglycemia within two weeks as described in […]
• Any Grade 4 non-hematologic toxicity of any duration
• Any non-hematologic toxicity Grade ≥ 3 EXCEPT for:
− Grade 3 diarrhea, nausea, or vomiting of ≤ 3 days duration (with optimal medical […]
− Grade 3 rash of the acneiform, pustular or maculopapular type which resolves to […]
level with resumption of study drug at the same dose (with optimal medical […]
− Grade 3 fatigue which resolves to Grade ≤ 2 within 7 days of study drug […]
the same dose (with optimal medical management).
• Hematological toxicities as follows:
− Grade 4 neutropenia lasting > 7 days
− Grade 4 thrombocytopenia lasting > 7 days, Grade ≥ 3 thrombocytopenia with clinically significant bleeding
• Any AE, Grade ≥ 2 not specified or exempt above, unless clearly determined to be unrelated to the drug, necessitating dose-level reduction during Cycle 1.
Isolated laboratory changes without associated clinical signs or symptoms (eg, hypomagnesemia, hypermagnesemia, hypoalbuminemia, hypophosphatemia, lymphocyte count increased or decreased) may not be included in this definition. These findings will be discussed and reviewed […]
7.2.7. Criteria for Dose Escalation in the Next Cohort of Subjects
During Part A, the dose escalation criteria are described in Section 7.2.2.
7.2.8. Definition of Stopping Criteria
During Part A, the dose escalation stopping rules are in Section 7.2.2.
7.2.9. Permitted Study Drug Adjustments
Dose reductions are permitted in any cycle, including Cycle 1.
• Dose reductions that occur in Cycle 1 during dose escalation will constitute DLT as […]

[1] = part A (N = 69), 02 Dec 2019 cutoff
[2] = part A (n=69), as stated in protocol section 7.2.10.1
[3] = part A, 30 mg 3-days-on/11-days off, 02 Dec 2019 cutoff
[4] = part A, 45 mg 4-days-on/24-days-off, 02 Dec 2019 cutoff

Cn1cc(-c2cc(S(C)(=O)=O)ccc2OCC2CC2)c2ccccc2c1=O [trotabresib]
TEAE dysgeusia [1]: 29.0% | TEAE fatigue [1]: 24.6% | TEAE headache [1]: 10.1% | TEAE hyperglycemia [1]: 21.7% | TEAE increased ALT [1]: 13.0% | TEAE maculopapular rash [1]: 10.1% | TEAE nausea [1]: 40.6% | TEAE stomatitis [1]: 24.6% | TEAE thrombocytopenia [1]: 50.7% | TEAE vomiting [1]: 24.6% | serious TEAE anemia [1]: 2.9% | serious TEAE arthralgia [1]: 2.9% | serious TEAE cognitive disorder [1]: 4.3% | serious TEAE decreased platelet count [1]: 1.4% | serious TEAE diarrhea [1]: 2.9% | serious TEAE fatigue [1]: 2.9% | serious TEAE general physical health deterioration [1]: 2.9% | serious TEAE headache [1]: 4.3% | serious TEAE noncardiac chest pain [1]: 2.9% | serious TEAE thrombocytopenia [1]: 2.9% | subjects with a TEAE leading to death (all not related) [1]: 10.1% | subjects with at least one Grade 3 or 4 TEAE [1]: 58.0% | subjects with at least one serious TEAE [1]: 46.4% | subjects with at least one treatment-related Grade 3 or 4 TEAE [1]: 33.3% | subjects with at least one treatment-related TEAE [1]: 87.0% | subjects with at least one treatment-related serious TEAE [1]: 11.6% | treatment-related Grade 3 or 4 TEAE anemia [1]: 4.3% | treatment-related Grade 3 or 4 TEAE decreased platelet count [1]: 2.9% | treatment-related Grade 3 or 4 TEAE fatigue [1]: 2.9% | treatment-related Grade 3 or 4 TEAE hyponatremia [1]: 2.9% | treatment-related Grade 3 or 4 TEAE increased ALT [1]: 2.9% | treatment-related Grade 3 or 4 TEAE thrombocytopenia [1]: 13.0% | treatment-related TEAE anemia [1]: 11.6% | treatment-related TEAE asthenia [1]: 31.9% | treatment-related TEAE decreased appetite [1]: 17.4% | treatment-related TEAE dermatitis acneiform [1]: 13.0% | treatment-related TEAE diarrhea [1]: 39.1% | treatment-related TEAE dysgeusia [1]: 26.1% | treatment-related TEAE fatigue [1]: 21.7% | treatment-related TEAE hyperglycemia [1]: 11.6% | treatment-related TEAE nausea [1]: 39.1% | treatment-related TEAE stomatitis [1]: 23.2% | treatment-related TEAE thrombocytopenia [1]: 46.4% | treatment-related TEAE vomiting [1]: 17.4% | treatment-related serious TEAE anemia [1]: 2.9% | treatment-related serious TEAE decreased platelet count [1]: 1.4% | treatment-related serious TEAE diarrhea [1]: 2.9% | treatment-related serious TEAE fatigue [1]: 2.9% | treatment-related serious TEAE thrombocytopenia [1]: 2.9% | Grade 3 or 4 TEAE decreased platelet count [2]: 4.3% | Grade 3 or 4 TEAE thrombocytopenia [2]: 10.1% | TEAE decreased platelet count [2]: 18.8% | subjects with at least one Grade 3 or 4 TEAE [2]: 49.3% | subjects with at least one TEAE Grade 3 or 4 related to study drug [3]: 33.3% | subjects with at least one TEAE related to study drug [3]: 66.7% | subjects with at least one TEAE Grade 3 or 4 related to study drug [4]: 28.6% | subjects with at least one TEAE related to study drug [4]: 85.7% | TRAE: ALT increased (part A, any grade): 7.25% | TRAE: Anemia (part A, any grade): 11.59% | TRAE: Any TRAE (part A, any grade): 86.96% | TRAE: Asthenia (part A, any grade): 31.88% | TRAE: Decreased appetite (part A, any grade): 17.39% | TRAE: Dehydration (part A, any grade): 0% | TRAE: Dermatitis acneiform (part A, any grade): 13.04% | TRAE: Diarrhoea (part A, any grade): 39.13% | TRAE: Dysgeusia (part A, any grade): 26.09% | TRAE: Fatigue (part A, any grade): 21.74% | TRAE: Hyperglycemia (part A, any grade): 11.59% | TRAE: Hypertension (part A, any grade): 1.45% | TRAE: Hyponatremia (part A, any grade): 4.35% | TRAE: Hypophosphatemia (part A, any grade): 2.9% | TRAE: Nausea (part A, any grade): 39.13% | TRAE: Neutropenia (part A, any grade): 7.25% | TRAE: Platelet count decreased (part A, any grade): 4.35% | TRAE: Stomatitis (part A, any grade): 23.19% | TRAE: Thrombocytopenia (part A, any grade): 46.38% | TRAE: Vomiting (part A, any grade): 17.39% | TRAE: ALT increased (part A, grade 3): 1.45% | TRAE: Anemia (part A, grade 3): 4.35% | TRAE: Any TRAE (part A, grade 3): 26.09% | TRAE: Asthenia (part A, grade 3): 1.45% | TRAE: Decreased appetite (part A, grade 3): 0% | TRAE: Dehydration (part A, grade 3): 0% | TRAE: Dermatitis acneiform (part A, grade 3): 0% | TRAE: Diarrhoea (part A, grade 3): 1.45% | TRAE: Dysgeusia (part A, grade 3): 0% | TRAE: Fatigue (part A, grade 3): 2.9%
